Data reported in article PMC10584170, “Machine learning-based phenotypic imaging to characterise the targetable biology of Plasmodium falciparum male gametocytes for the development of transmission-blocking antimalarials” (PLOS Pathogens, 2023).

What was measured:
[1] = system: P. falciparum female gametocytes; experiment: P. falciparum Dual Gamete Formation Assay (PfDGFA), female readout (Pfs25-positive female gametes); format: cell-based, Plasmodium falciparum NF54; details: for Average inhibition female (%): average of replicates; for % inhibition female (individual replicates) R1: replicate R1; for % inhibition female (individual replicates) R3: replicate R3; for % inhibition female (individual replicates) R4: replicate R4
Summary of the method: (§1)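 First, day-14 P. falciparum NF54 gametocytes receive compound for 24 h at 37°C in 1% O2/3% CO2. Next, ookinete medium with Cy3 anti-Pfs25 triggers gametogenesis at 28°C and male exflagellation is imaged. Finally, after 24 h in the dark, Cy3-labelled females are imaged.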

[2] = system: P. falciparum male gametocytes; experiment: P. falciparum Dual Gamete Formation Assay (PfDGFA), male readout (exflagellation); format: cell-based, Plasmodium falciparum NF54; details: for Average inhibition male (%): average of replicates; for % inhibition male (individual replicates) R1: replicate R1; for % inhibition male (individual replicates) R3: replicate R3; for % inhibition male (individual replicates) R4: replicate R4; for Activity: hit = >50% inhibition in male or female readout in at least 3 replicates, 0 = no class assigned
Summary of the method: as §1

[3] = 2µM, 24h preincubation with gametocytes prior to induction of gametogenesis
[4] = 2µM, 24h preincubation, hits selected on >50% inhibition in the female readout across replicates
[5] = 2µM, 24h preincubation, hits selected on >50% inhibition in the male readout across replicates
[6] = PfDGFA at 2µM, 24h preincubation
[7] = 2µM, 24h preincubation, number of replicates with >50% inhibition in the female readout
[8] = 2µM, 24h preincubation, number of replicates with >50% inhibition in the male readout
[9] = PfDGFA at 2µM, 24h preincubation with gametocytes prior to induction of gametogenesis
[10] = PfDGFA at 2µM, 24h preincubation with gametocytes
[11] = 2µM, 24h preincubation with gametocytes

| Structure (SMILES) | Average inhibition female (%) [1, 3] [%] | % inhibition female (individual replicates) R1 [1, 3] [%] | % inhibition female (individual replicates) R3 [1, 3] [%] | % inhibition female (individual replicates) R4 [1, 3] [%] | Average inhibition male (%) [2, 3] [%] | % inhibition male (individual replicates) R1 [2, 3] [%] | % inhibition male (individual replicates) R3 [2, 3] [%] | % inhibition male (individual replicates) R4 [2, 3] [%] | HitlevelF [1, 7] | HitlevelM [2, 8] | also measured |
| --- | --- | --- | --- | --- | --- | --- | --- | --- | --- | --- | --- |
| NCCCNc1nccc(N2CCc3ncnc(Nc4ccc(OCc5cccc(F)c5)c(Cl)c4)c3C2)n1 [TCMDC-135456] | 13.8 | 10.7 | -9.6 | 40.7 | -16.9 | -14.5 | -30.0 | -11.8 |  |  | HitlevelF [1, 4]: 0; HitlevelM [2, 5]: 0; Activity [2, 6]: 0 |
| COc1cc2ccccc2cc1OCCCN1CCN(CC(c2ccc(F)cc2)N2CCN(C(C)C)CC2)CC1.Cl (centres unmarked) [TCMDC-135496] | 22.9 | 29.5 | 8.0 | 29.0 | 6.1 | 10.5 | -16.9 | 18.2 | 0 | 0 |  |
| CC(C)N1CCN(C(CN2CCN(CCCOc3ccccc3-c3ccccc3)CC2)c2ccc(F)cc2)CC1.Cl (centres unmarked) [TCMDC-135499] | 28.0 | 23.1 | 16.4 | 32.9 | 13.5 | 15.7 | 14.1 | 9.5 | 0 | 0 |  |
| CC(=O)Nc1cccc(Nc2nccc(-c3c(-c4cccc(NC(=O)c5c(F)cccc5F)c4)nn4ncccc34)n2)c1 [TCMDC-135548] |  |  |  |  |  |  |  |  |  |  | % inhibition female (individual replicates) R1 [1, 9]: -7.4%; % inhibition female (individual replicates) R3 [1, 9]: -25.4%; % inhibition female (individual replicates) R4 [1, 9]: -8.4%; Average inhibition female (%) [1, 6]: -11.7%; % inhibition male (individual replicates) R1 [2, 9]: 29.2%; % inhibition male (individual replicates) R3 [2, 9]: 23.6%; % inhibition male (individual replicates) R4 [2, 9]: -3.8%; Average inhibition male (%) [2, 6]: 8.8% |
| CCS(=O)(=O)c1ccc(OC)c(Nc2nccc(-c3c(-c4cccc(NC(=O)c5c(F)cccc5F)c4)nn4ncccc34)n2)c1 [TCMDC-135682] | 14.6 | 17.1 | 13.9 | 13.6 | 69.4 | 83.8 |  | 34.3 |  |  | HitlevelF [1, 4]: 0; HitlevelM [2, 5]: 2; Activity [2, 6]: 0 |
| C[C@@H](Oc1cc(-n2cnc3ccc(OCC4CCN(S(C)(=O)=O)CC4)cc32)sc1C(N)=O)c1ccccc1C(F)(F)F [TCMDC-135685] | 30.5 | 13.3 | 19.8 | 50.4 | 39.3 | 77.8 | 32.6 | -12.5 | 1 | 2 |  |
| COc1ccc2ncc(F)c(CCN3CCC(NCc4cc(F)c5c(c4)OCCO5)CC3)c2n1.Cl [TCMDC-135849] |  |  |  |  |  |  |  |  |  |  | % inhibition female (individual replicates) R1 [1, 9]: 9.2%; % inhibition female (individual replicates) R3 [1, 9]: -25.5%; % inhibition female (individual replicates) R4 [1, 9]: 10.6%; Average inhibition female (%) [1, 6]: -0.168%; % inhibition male (individual replicates) R1 [2, 9]: -15.0%; % inhibition male (individual replicates) R3 [2, 9]: -30.0%; % inhibition male (individual replicates) R4 [2, 9]: -21.8%; Average inhibition male (%) [2, 6]: -22.8% |
| COc1ccc(-c2cnc3[nH]cc(-c4ccncc4)c3c2)cc1OC [TCMDC-135853] |  |  |  |  |  |  |  |  |  |  | Average inhibition female (%) [1, 10]: 15.5%; % inhibition female (individual replicates) R1 [1, 10]: 9.0%; % inhibition female (individual replicates) R3 [1, 10]: 36.4%; % inhibition female (individual replicates) R4 [1, 10]: 5.3%; HitlevelF ([1]; number of replicates with >50% inhibition in the female readout, 2µM): 0; Average inhibition male (%) [2, 10]: 73.2%; % inhibition male (individual replicates) R1 [2, 10]: 70.5%; % inhibition male (individual replicates) R3 [2, 10]: 62.1%; % inhibition male (individual replicates) R4 [2, 10]: 76.3%; HitlevelM ([2]; number of replicates with >50% inhibition in the male readout, 2µM): 4 |
| CC(C)CN1CCC(COc2ccc3ncn(-c4cc(O[C@H](C)c5ccccc5C(F)(F)F)c(C(N)=O)s4)c3c2)CC1 [TCMDC-135856] |  |  |  |  |  |  |  |  |  |  | % inhibition female (individual replicates) R1 [1, 9]: -5.1%; % inhibition female (individual replicates) R3 [1, 9]: 3.7%; % inhibition female (individual replicates) R4 [1, 9]: -5.5%; Average inhibition female (%) [1, 6]: -0.7%; % inhibition male (individual replicates) R1 [2, 9]: 69.3%; % inhibition male (individual replicates) R4 [2, 9]: -19.8%; Average inhibition male (%) [2, 6]: 39.0% |
| COc1ccc2ccccc2c1CCCCN1CCN(CC(c2ccc(F)cc2)N2CCC(N3CCCC3)CC2)CC1.O=C(O)C(F)(F)F (centres unmarked) [TCMDC-135866] | 23.8 | 27.0 | 20.6 | 10.9 | 26.2 | 24.9 | 0.4 | 58.9 | 0 | 1 |  |
| COc1ccc2ccccc2c1CCCCN1CCN(CC(c2ccc(F)cc2)N2CCC2)CC1.O=C(O)C(F)(F)F (centres unmarked) [TCMDC-135867] | 37.8 | 32.4 | 22.8 | 37.2 | 8.0 | -5.9 | -10.3 | 17.6 | 1 | 0 |  |
| Cc1c(OC(C)C)nc2ccccc2c1C(=O)N[C@H](c1cccc(F)c1)C1CC1 [TCMDC-135994] |  |  |  |  |  |  |  |  |  |  | % inhibition female (individual replicates) R1 [1, 9]: 11.9%; % inhibition female (individual replicates) R3 [1, 9]: -14.7%; % inhibition female (individual replicates) R4 [1, 9]: 16.8%; Average inhibition female (%) [1, 6]: 1.3%; % inhibition male (individual replicates) R1 [2, 9]: 5.7%; % inhibition male (individual replicates) R3 [2, 9]: 14.1%; % inhibition male (individual replicates) R4 [2, 9]: 25.6%; Average inhibition male (%) [2, 6]: 14.7% |
| CCn1c(-c2nonc2N)nc2c(-c3ccccc3)ncc(OCCCCNCCc3ncc[nH]3)c21.O=C(O)C(F)(F)F [TCMDC-136000] |  |  |  |  |  |  |  |  |  |  | Average inhibition female (%) [1, 11]: 36.6%; % inhibition female (individual replicates) R1 [1, 11]: 29.5%; % inhibition female (individual replicates) R3 [1, 11]: 30.1%; % inhibition female (individual replicates) R4 [1, 11]: 56.9%; Average inhibition male (%) [2, 11]: 92.8%; % inhibition male (individual replicates) R1 [2, 11]: 92.7%; % inhibition male (individual replicates) R3 [2, 11]: 86.1%; % inhibition male (individual replicates) R4 [2, 11]: 98.9% |
| COc1ccc2ncc(F)c(CCN3C[C@H](CNCc4nc5c(cc4Cl)OCC(=O)N5)[C@H](O)C3)c2n1.Cl [TCMDC-136031] | 9.3 | 13.9 | -6.7 | 27.7 | 6.8 | 19.6 | -8.5 | 9.5 |  |  | HitlevelF [1, 4]: 0; HitlevelM [2, 5]: 0; Activity [2, 6]: 0 |
